Measurements: US20200354796A1, “Use of DNA Recombination Deficiency Score (RDS) in Cancer Treatment” (SHUWEN BIOTECH CO., LTD., priority 2017, published 2020)
Counter-ions that a name gives are not always drawn.

How the values were obtained:
[1] = test system: A549; experiment: In vitro drug sensitivity test of cells, MTS method; assay type: cell-based; conditions: A549 human non-small cell lung adenocarcinoma cells, culture time 72 h-216 h
Description: (§1) 1640 medium (Gibco), DMEM medium (Hyclone), MEM medium (Gibco), […] medium (Gibco), DMEM/F12 medium (Gibco), L-15 medium (Hyclone), IMDM culture Base (Hyclone), non-essential amino acid (Gibco), sodium pyruvate (Gibco), insulin-transferrin-selenium additive TS-G, Shanghai Yuanpei Bio-tech), fetal bovine serum ([…]), trypsin digestion fluid (Jiangsu KGI), Cell Titer 96® AQueousOne Solution Cell Proliferation Assay (Promega), 96-well cell culture plate (Corning, Cat. No. 3599), Cisplatin (sigma, Cat. No. P4394), Olaparib (Selleck, Cat. No. S1060), Topotecan hydrochloride hydrate (Sigma, article number T2705), Paclitaxel (Dalian Meilun, article number MB1178). [table] […] Then the inventors adjusted the cell suspension concentration to 1×10^4/mL, added the cells to a 96 well plate as 100 ul per well, that is, 1000-2000 cells per well. Then the cells were incubated at 5% CO2, 37° C. overnight. The next day, after the cells at the bottom of the 96-well plate adhered, various drugs with different concentration gradients were added: […] After putting the 96-well plate into a CO2 incubator for 72 hours, the cell morphology and density in each were observed. For slow-growing cells, supplementation treatment was needed. For different cells, the culture time was between 72 h-216 h, and most of the cell culture time was between 144 h-168 h. […] Measure the absorbance (OD) of each well at 492 nm. Cell Viabilities was calculated by the formula: [formula]

[2] = test system: CAMA-1; experiment: as above; assay type: cell-based; conditions: CAMA-1 human breast cancer cells, culture time 72 h-216 h
Description: as §1

[3] = test system: Cal-120; experiment: as above; assay type: cell-based; conditions: Cal-120 human breast cancer cells, culture time 72 h-216 h
Description: as §1

[4] = test system: Capan-1; experiment: as above; assay type: cell-based; conditions: Capan-1 human pancreatic cancer cells, culture time 72 h-216 h
Description: as §1

[5] = test system: H1299; experiment: as above; assay type: cell-based; conditions: culture time 72 h-216 h
Description: as §1

[6] = test system: H1650; experiment: as above; assay type: cell-based; conditions: culture time 72 h-216 h
Description: as §1

[7] = test system: H1975; experiment: as above; assay type: cell-based; conditions: culture time 72 h-216 h
Description: as §1

[8] = test system: H2228; experiment: as above; assay type: cell-based; conditions: culture time 72 h-216 h
Description: as §1

[9] = test system: H2444; experiment: as above; assay type: cell-based; conditions: culture time 72 h-216 h
Description: as §1

[10] = test system: H3122; experiment: as above; assay type: cell-based; conditions: culture time 72 h-216 h
Description: as §1

[11] = test system: H520; experiment: as above; assay type: cell-based; conditions: culture time 72 h-216 h
Description: as §1

[12] = test system: HCC1937; experiment: as above; assay type: cell-based; conditions: HCC1937 human breast cancer cells, culture time 72 h-216 h
Description: as §1

[13] = test system: HCC4006; experiment: as above; assay type: cell-based; conditions: HCC4006 human lung adenocarcinoma cells, culture time 72 h-216 h
Description: as §1

[14] = test system: HCC827; experiment: as above; assay type: cell-based; conditions: HCC827 human lung adenocarcinoma cells, culture time 72 h-216 h
Description: as §1

[15] = test system: HCC95; experiment: as above; assay type: cell-based; conditions: HCC95 human lung cancer cells, culture time 72 h-216 h
Description: as §1

[16] = test system: HEK-293; experiment: as above; assay type: cell-based; conditions: culture time 72 h-216 h
Description: as §1

[17] = test system: HT29; experiment: as above; assay type: cell-based; conditions: culture time 72 h-216 h
Description: as §1

[18] = test system: KYSE450; experiment: as above; assay type: cell-based; conditions: culture time 72 h-216 h
Description: as §1

[19] = test system: MCF-7; experiment: as above; assay type: cell-based; conditions: culture time 72 h-216 h
Description: as §1

[20] = test system: MDA-MB-436; experiment: as above; assay type: cell-based; conditions: MDA-MB-436 human breast cancer cells, culture time 72 h-216 h
Description: as §1

[21] = test system: PC-3; experiment: as above; assay type: cell-based; conditions: PC-3 human prostate cancer cells, culture time 72 h-216 h
Description: as §1

[22] = test system: T84; experiment: as above; assay type: cell-based; conditions: T84 human colon cancer cells, culture time 72 h-216 h
Description: as §1

[23] = test system: TNBC patients; conditions: CALGB 40603 study, combined carboplatin, cited from earlier work
[24] = NCI-H1299, H1299 human non-small cell lung cancer cells
[25] = NCI-H1650, H1650 human lung cancer cells
[26] = NCI-H1975, H1975 human non-small cell lung adenocarcinoma cells
[27] = NCI-H2228, H2228 human non-small cell lung adenocarcinoma cells
[28] = NCI-H2444, H2444 human non-small cell lung cancer cells
[29] = NCI-H3122, H3122 human non-small cell lung cancer cells
[30] = NCI-H520, H520 human non-small cell lung squamous cell
[31] = HEK293, HEK-293 human embryonic kidney cells
[32] = HT-29, HT29 human colon cancer cells
[33] = KYSE-450, KYSE450 human esophageal cancer cells
[34] = MCF7, MCF-7 human breast cancer cells

| Molecule | IC50 [1] | IC50 [2] | IC50 [3] | IC50 [4] | IC50 [12] | IC50 [13] | IC50 [14] | IC50 [15] | IC50 [20] | IC50 [21] | IC50 [22] | IC50 [5, 24] | IC50 [6, 25] | IC50 [7, 26] | IC50 [8, 27] | IC50 [9, 28] | IC50 [10, 29] | IC50 [11, 30] | IC50 [16, 31] | IC50 [17, 32] | other results |
| --- | --- | --- | --- | --- | --- | --- | --- | --- | --- | --- | --- | --- | --- | --- | --- | --- | --- | --- | --- | --- | --- |
| N.N.[Cl][Pt][Cl] [Cisplatin, cis-diaminedichloroplatinum(II)] | 1000 nM | 1400 nM | 4440 nM | 214 nM | 259 nM | 1000 nM | 626 nM | 878 nM | 139 nM | 799 nM | 433 nM | – | – | – | – | – | – | – | – | – | IC50 ([5]; H1299 human non-small cell lung cancer cells): 2000 nM; IC50 ([6]; H1650 human lung cancer cells): 1060 nM; IC50 ([7]; H1975 human non-small cell lung adenocarcinoma cells): 7000 nM; IC50 ([8]; H2228 human non-small cell lung adenocarcinoma cells): 514 nM; IC50 ([9]; H2444 human non-small cell lung cancer cells): 1140 nM; IC50 ([10]; H3122 human non-small cell lung cancer cells): 1540 nM; IC50 ([11]; H520 human non-small cell lung squamous cell): 464 nM; IC50 ([16]; HEK-293 human embryonic kidney cells): 465 nM; IC50 ([17]; HT29 human colon cancer cells): 692 nM; IC50 ([18]; KYSE450 human esophageal cancer cells): 1460 nM; IC50 ([19]; MCF-7 human breast cancer cells): 894 nM |
| O=C(c1cc(Cc2n[nH]c(=O)c3ccccc23)ccc1F)N1CCN(C(=O)C2CC2)CC1 [Olaparib] | 80000 nM | 8330 nM | 160000 nM | 2570 nM | 10000 nM | 9140 nM | 6080 nM | 25300 nM | < 2500 nM | 6220 nM | 5850 nM | 40000 nM | 75000 nM | 80000 nM | 10800 nM | 7670 nM | 16900 nM | 2190 nM | 5880 nM | 7660 nM | IC50 [18, 33]: 130000 nM; IC50 [19, 34]: 3510 nM |
| CC(=O)O[C@H]1C(=O)[C@@]2(C)[C@H]([C@H](OC(=O)c3ccccc3)[C@]3(O)C[C@H](OC(=O)[C@H](O)[C@@H](NC(=O)c4ccccc4)c4ccccc4)C(C)=C1C3(C)C)[C@]1(OC(C)=O)CO[C@@H]1C[C@@H]2O [Paclitaxel] | 5.86 nM | 4.16 nM | 43.5 nM | 6.99 nM | 9 nM | 3.85 nM | 9.26 nM | 6.13 nM | 9.67 nM | 4.27 nM | 32.1 nM | 22.7 nM | 6.61 nM | 7 nM | 5.2 nM | 7.1 nM | 8.48 nM | 6.99 nM | 10.3 nM | 3.05 nM | IC50 [18, 33]: 11.5 nM; IC50 [19, 34]: 4.84 nM |
| CC[C@@]1(O)C(=O)OCc2c1cc1n(c2=O)Cc2cc3c(CN(C)C)c(O)ccc3nc2-1 [Topotecan, Topotecan hydrochloride hydrate] | 250 nM | 0.907 nM | 518 nM | 15.8 nM | 35.2 nM | 23.1 nM | 12.6 nM | 46.7 nM | 4.21 nM | 20.1 nM | 7.56 nM | 28.7 nM | 125 nM | 250 nM | 24.6 nM | 8.09 nM | 20 nM | 9.17 nM | 18 nM | 15.6 nM | IC50 [18, 33]: 26.3 nM; IC50 [19, 34]: 2.05 nM |
| carboplatin | – | – | – | – | – | – | – | – | – | – | – | – | – | – | – | – | – | – | – | – | breast/axillary pCR rates ([23]; vs 41% without, P=0.0029): 54%; breast pCR rates ([23]; vs 44% without, P=0.0018): 60% |
